Here are results for ten molecules from US6825170B2, “6-O-acyl ketolide antibacterials” (Ortho-McNeil Pharmaceutical, Inc., priority 2001, dated 2004).

Assay in all cases: MIC, microdilution broth method (NCCLS)
What all share (assay type): cell-based
Holding throughout (conditions): 35° C., 16-20 hours

Assay [1] deals with S. aureus ATCC29213. In short, it runs like this:
(§1)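 MIC taken from visual growth relative to compound-free wells in each tray. Incubation: 35° C for 16-20 h, cation-adjusted Mueller-Hinton broth, two-fold dilution series, ~5×10^4 CFU/well.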

Assay [2] deals with E. coli OC2605. In short, it runs like this: as §1
Assay [3] concerns H. influenzae ATCC49247. In short, it runs like this:
as §1

The subject of assay [4] is E. faecalis ATCC29212. In short, it runs like this:
as §1

For assay [5], the system named is S. pneumoniae ATCC49619. In short, it runs like this: as §1

Values after ≈ are worked out from the molar mass of the structure shown. Where only a bound is given, the exact number is not on record here.

For the molecule `CCC1OC(=O)C(C)C(=O)C(C)C(OC2OC(C)CC(N(C)C)C2O)C(C)(OC(=O)NOCc2ccc(-c3ncccn3)cc2)CC(C)C(=O)C(C)C2NC(=O)OC12C` (centres unmarked) [Compound 599], the “MIC (B: S. aureus ATCC29213)” value in assay [1] was 0.5 µg/mL (≈ 0.605 µM). The “MIC (A: E. coli OC2605)” value in assay [2] was 16 µg/mL (≈ 19.4 µM). Further, the “MIC (E: H. influenzae ATCC49247)” value in assay [3] stood at 2 µg/mL (≈ 2.42 µM). Further, the “MIC (C: E. faecalis ATCC29212)” value in assay [4] was 0.25 µg/mL (≈ 0.303 µM). The “MIC (D: S. pneumoniae ATCC49619)” value in assay [5] worked out at 0.06 µg/mL (≈ 0.0726 µM).

Regarding `CCC1OC(=O)C(C)C(=O)C(C)C(OC2OC(C)CC(N(C)C)C2O)C(C)(OC(=O)NOCC=Cc2ccc(-c3ncccn3)cc2)CC(C)C(=O)C(C)C2NC(=O)OC12C` (centres unmarked) [Compound 605], in assay [1], the “MIC (B: S. aureus ATCC29213)” value stood at 0.25 µg/mL (≈ 0.293 µM). In addition, the “MIC (A: E. coli OC2605)” value in assay [2] was found to be 16 µg/mL (≈ 18.8 µM). Further, the “MIC (E: H. influenzae ATCC49247)” value in assay [3] came out at 4 µg/mL (≈ 4.69 µM). For the same molecule, in assay [4], the “MIC (C: E. faecalis ATCC29212)” value was 0.25 µg/mL (≈ 0.293 µM). Moreover, the “MIC (D: S. pneumoniae ATCC49619)” value in assay [5] was determined as 0.06 µg/mL (≈ 0.0704 µM).

Turning to `CCC1OC(=O)C(C)C(=O)C(C)C(OC2OC(C)CC(N(C)C)C2O)C(C)(OC(=O)NOCCCc2ccc(-c3ncccn3)cc2)CC(C)C(=O)C(C)C2NC(=O)OC12C` (centres unmarked) [Compound 608], in assay [1], the “MIC (B: S. aureus ATCC29213)” value was determined as 0.5 µg/mL (≈ 0.585 µM). Besides, the “MIC (A: E. coli OC2605)” value in assay [2] is over 16 µg/mL. Also, the “MIC (E: H. influenzae ATCC49247)” value in assay [3] stood at 4 µg/mL (≈ 4.68 µM). For the same molecule, in assay [4], the “MIC (C: E. faecalis ATCC29212)” value stood at 0.5 µg/mL (≈ 0.585 µM). For the same molecule, the “MIC (D: S. pneumoniae ATCC49619)” value in assay [5] is 0.06 µg/mL (≈ 0.0703 µM).

Regarding `CC[C@H]1OC(=O)[C@H](C)C(=O)[C@H](C)[C@@H](O[C@@H]2O[C@H](C)C[C@H](N(C)C)[C@H]2O)[C@](C)(OC(=O)NOCCc2ccccc2)C[C@@H](C)C(=O)[C@H](C)[C@H]2NC(=O)O[C@@]21C` [Compound 611], in assay [1], the “MIC (B: S. aureus ATCC29213)” value was 2 µg/mL (≈ 2.62 µM). The “MIC (A: E. coli OC2605)” value in assay [2] is over 16 µg/mL. Moreover, the “MIC (E: H. influenzae ATCC49247)” value in assay [3] was 8 µg/mL (≈ 10.5 µM). The “MIC (C: E. faecalis ATCC29212)” value in assay [4] turned out to be 0.5 µg/mL (≈ 0.656 µM). For the same molecule, the “MIC (D: S. pneumoniae ATCC49619)” value in assay [5] worked out at 0.12 µg/mL (≈ 0.157 µM).

With `CC[C@H]1OC(=O)[C@H](C)C(=O)[C@H](C)[C@@H](O[C@@H]2O[C@H](C)C[C@H](N(C)C)[C@H]2O)[C@](C)(OC(=O)NOCCCc2ccccc2)C[C@@H](C)C(=O)[C@H](C)[C@H]2NC(=O)O[C@@]21C` [Compound 612], the “MIC (B: S. aureus ATCC29213)” value in assay [1] worked out at 1 µg/mL (≈ 1.29 µM). Also, the “MIC (A: E. coli OC2605)” value in assay [2] was over 16 µg/mL. Besides, the “MIC (E: H. influenzae ATCC49247)” value in assay [3] was found to be 4 µg/mL (≈ 5.16 µM). In addition, in assay [4], the “MIC (C: E. faecalis ATCC29212)” value was found to be 0.25 µg/mL (≈ 0.322 µM). Moreover, in assay [5], the “MIC (D: S. pneumoniae ATCC49619)” value is 0.06 µg/mL (≈ 0.0773 µM).

In the case of `CC[C@H]1OC(=O)[C@H](C)C(=O)[C@H](C)[C@@H](O[C@@H]2O[C@H](C)C[C@H](N(C)C)[C@H]2O)[C@](C)(OC(=O)NNc2ccccc2)C[C@@H](C)C(=O)[C@H](C)[C@H]2NC(=O)O[C@@]21C` [Compound 624], the “MIC (B: S. aureus ATCC29213)” value in assay [1] came to 4 µg/mL (≈ 5.46 µM). The “MIC (A: E. coli OC2605)” value in assay [2] was over 16 µg/mL. In assay [3], the “MIC (E: H. influenzae ATCC49247)” value is 4 µg/mL (≈ 5.46 µM). Besides, the “MIC (C: E. faecalis ATCC29212)” value in assay [4] turned out to be 0.5 µg/mL (≈ 0.682 µM). Besides, the “MIC (D: S. pneumoniae ATCC49619)” value in assay [5] amounted to 0.12 µg/mL (≈ 0.164 µM).

For the molecule `CC[C@H]1OC(=O)[C@H](C)C(=O)[C@H](C)[C@@H](O[C@@H]2O[C@H](C)C[C@H](N(C)C)[C@H]2O)[C@](C)(OC(=O)NNCc2ccccc2)C[C@@H](C)C(=O)[C@H](C)[C@H]2NC(=O)O[C@@]21C` [Compound 625], in assay [1], the “MIC (B: S. aureus ATCC29213)” value was 2 µg/mL (≈ 2.68 µM). Besides, the “MIC (A: E. coli OC2605)” value in assay [2] was over 16 µg/mL. Also, in assay [3], the “MIC (E: H. influenzae ATCC49247)” value was 4 µg/mL (≈ 5.36 µM). Moreover, the “MIC (C: E. faecalis ATCC29212)” value in assay [4] amounted to 0.25 µg/mL (≈ 0.335 µM). Besides, in assay [5], the “MIC (D: S. pneumoniae ATCC49619)” value worked out at 0.03 µg/mL (≈ 0.0402 µM).

`CC[C@H]1OC(=O)[C@H](C)C(=O)[C@H](C)[C@@H](O[C@@H]2O[C@H](C)C[C@H](N(C)C)[C@H]2O)[C@](C)(OC(=O)NNCCc2ccc(-c3ncccn3)cc2)C[C@@H](C)C(=O)[C@H](C)[C@H]2NC(=O)O[C@@]21C` [Compound 626]: the “MIC (B: S. aureus ATCC29213)” value in assay [1] came to 0.25 µg/mL (≈ 0.298 µM). The “MIC (A: E. coli OC2605)” value in assay [2] is over 16 µg/mL. Moreover, the “MIC (E: H. influenzae ATCC49247)” value in assay [3] came out at 4 µg/mL (≈ 4.77 µM). Further, the “MIC (C: E. faecalis ATCC29212)” value in assay [4] is 0.12 µg/mL (≈ 0.143 µM). Further, in assay [5], the “MIC (D: S. pneumoniae ATCC49619)” value is 0.03 µg/mL (≈ 0.0358 µM).

Take `CC[C@H]1OC(=O)[C@H](C)C(=O)[C@H](C)[C@@H](O[C@@H]2O[C@H](C)C[C@H](N(C)C)[C@H]2O)[C@](C)(OC(=O)NNCc2ccc3ncccc3c2)C[C@@H](C)C(=O)[C@H](C)[C@H]2NC(=O)O[C@@]21C` [Compound 661]: the “MIC (B: S. aureus ATCC29213)” value in assay [1] was determined as 0.5 µg/mL (≈ 0.627 µM). Further, the “MIC (A: E. coli OC2605)” value in assay [2] was over 16 µg/mL. Further, in assay [3], the “MIC (E: H. influenzae ATCC49247)” value worked out at 2 µg/mL (≈ 2.51 µM). In addition, the “MIC (C: E. faecalis ATCC29212)” value in assay [4] is 0.12 µg/mL (≈ 0.15 µM). Also, the “MIC (D: S. pneumoniae ATCC49619)” value in assay [5] is 0.03 µg/mL (≈ 0.0376 µM).

In the case of `CC[C@H]1OC(=O)[C@H](C)C(=O)[C@H](C)[C@@H](O[C@@H]2O[C@H](C)C[C@H](N(C)C)[C@H]2O)[C@](C)(OC(=O)NNCc2ccc(-c3cccnn3)cc2)C[C@@H](C)C(=O)[C@H](C)[C@H]2NC(=O)O[C@@]21C` [Compound 675], the “MIC (B: S. aureus ATCC29213)” value in assay [1] came to 0.5 µg/mL (≈ 0.606 µM). In assay [2], the “MIC (A: E. coli OC2605)” value is 16 µg/mL (≈ 19.4 µM). Also, in assay [3], the “MIC (E: H. influenzae ATCC49247)” value came out at 2 µg/mL (≈ 2.42 µM). In addition, in assay [4], the “MIC (C: E. faecalis ATCC29212)” value stood at 0.12 µg/mL (≈ 0.145 µM). Besides, the “MIC (D: S. pneumoniae ATCC49619)” value in assay [5] is 0.06 µg/mL (≈ 0.0727 µM).
